Assay [1] deals with ACHN. The assay is described as follows: cells. Set-up: JFCR39 human cancer cell line panel, antiproliferative dose response (optical density), GI50. The settings on record: Homo sapiens, ACHN. The protocol: (§1) Initially, we evaluated new DDP analogues for their antiproliferative activities across the panel of 39 human cancer cell lines, JFCR39[50],[51]. […] Purified DDPs was dissolved in DMSO (Specially Prepared Reagent, Nuclease and Protease tested, NACALAI, 09659-14) to prepare 5 mM solutions. The Each DDP solution (5 mM) was used for antiproliferative effects on cancer cell lines (Supplementary Notes 23, 24, 25, 26), biological activity against Drosophila (Supplementary Note 27), anti-HIV assay (Supplementary Note 28) and screening of amyloid Ab42 aggregation inhibitors (Supplementary Notes 29).

Assay [2] relates to KM-12. Put plainly: cells. Set-up: JFCR39 human cancer cell line panel, antiproliferative dose response (optical density), GI50. The settings on record: Homo sapiens, KM12. The procedure:
as §1

Assay [3] deals with LOX-IMVI. The assay is described as follows: cells. More on the design: JFCR39 human cancer cell line panel, antiproliferative dose response (optical density), GI50. The note with it: Homo sapiens, LOX IMVI. The procedure: as §1
Assay [4] concerns MKN74. The assay is described as follows: cells. More on the design: JFCR39 human cancer cell line panel, antiproliferative dose response (optical density), GI50. The note with it: Homo sapiens, MKN-74. The protocol:
as §1

Assay [5] concerns OVCAR-5. Put plainly: cells. More on the design: JFCR39 human cancer cell line panel, antiproliferative dose response (optical density), GI50. The note with it: Homo sapiens, OVCAR-5. The procedure: as §1
For assay [6], the target named is T1, Aβ42 (Homo sapiens, UniProt P05067). The assay is described as follows: TEM analysis of amyloid fibrils formed by Aβ42. The format is biochemical.
Assay [7] has as its system adult Drosophila. The assay is described as follows: toxic effect on Drosophila adult (injection, unmoving flies). The class given is in vivo, Drosophila melanogaster. The settings on record: for Number of Unmoving flies (%) Mean: 1 mM, 1h, adult flies injected (3.5 ng each), solvent 5. The text has this:
We next tested the ability of the DDPs to affect the innate immune pathways, namely, the Toll and immune deficiency (IMD) pathways, which are the front line of defence against infection by microorganisms. […] Thus, we successfully found unique biological activity against Drosophila in 5 and 21, which may potentially be developed as insecticides.
Fig. 6 Biological activity against Drosophila. a Inhibitory effect of compound 21 on the IMD pathway Drosophila l(2)mbn cells were stimulated with heat-killed E. coli and the activity of the Attacin promoter, a read-out of the activation of the IMD pathway, was monitored by a luciferase assay. Data are means ± SEM of triplicate wells from a single experiment and are representative of two independent experiments. b Toxic effect of compound 5 on Drosophila adult. […] Data are the means ± SEM of triplicate samples from a single experiment and are representative of two independent experiments. Source data underlying Fig. 6a, b are provided in a Source Data file.
Policy information about cell lines […]
were distributed from National Cancer Institute (Frederick, MD). HT-29, MCF-7, DU-145 and PC-3 were purchased from American Type Culture Collection (Baltimore, MD). MKN-1, MKN-74, MKN-45, MKN-A and MKN-B were purchased from Immuno-Biological Laboratories, Co., Ltd., Gumma, Japan). St-4, HBC-4, HBC-5 and BSY-1 were established in Japanese Foundation for Cancer Research (Tokyo, Japan).
DL-1 and l(2)mbn were gifted from Dr. Kurata in Tohoku University.
MCF-7 (Fig.5 and Supplementary Fig. 46) were obtained from American Type Culture Collection.
HeLa-CD4-LTR/ !-galactosidase (MAGI) cells provided by Dr. J. Overbaugh through the NIH AIDS Research and Reference […]
PC-3) were authenticated by STR analysis.
DL-1 and l(2)mbn are Drosophila cell lines, and were not authenticated.
MCF-7 cells (for Fig. 5 and Supplementary Fig. 46) were authenticated by STR analysis to evaluate antiproliferative activity […]
MAGI cells were authenticated by the NIH.
Mycoplasma contamination All the cell lines tested negative for mycoplasma contamination. […]

Assay [8] concerns the target T1, Aβ42. Put plainly: LC/Q Tof-MS detection of Aβ42 adducts. The format is binding. The settings on record: 1 h incubation at room temperature. The protocol:
To further analyse the inhibitory mechanism, we subjected a mixture of Aβ42 and 21 after 1 h of incubation at room temperature to liquid chromatography/quadrupole time-of-flight mass spectrometry (LC/Q Tof-MS). […] To identify the specific amino acids involved in the interaction of 21 with the Aβ monomer, we performed LC–MS/MS analysis with collision-induced dissociation (CID) using E22P, M35ox-Aβ9-35 as a toxic conformer surrogate[66],[67]. Based on a large number of fragmented b ions and y ions, Lys16 in Aβ42 ([…]) seemed to be one of the target amino acid residues of 21 (Supplementary Fig. 50).
Device; UPLC H-class with Xevo G2-S Qtof (Waters) 3.44e7 […]
in 50% CH3CN containing 0.01%NH4OH, incubated for 1 h at 23 °C […]
Capillary voltage; 3.0 kv 16.07
WT-A!42+ compound 21 1: TOF MS ES+
ْMeasurement conditionٓ 2.25e7
Device; UPLC H-class with Xevo G2-S Qtof (Waters)
Capillary voltage; 3.0 kv
WT-A!42 + compound 21 Mass spectrum […]
Supplementary Fig. 48. Comparison of LC-MS data, a, compound 20 was incubated with wt-Aβ42 and analyzed by LC-MS, whereas no peak originated from their adducts was observed. b, compound 21 was incubated with Aβ42 and analyzed by LC-MS, and their Michael adducts were observed around 9 min. c, ESI mass spectra of the Michael adducts between Aβ42 and compound 21. d, Deconvolution Mass spectrum of a Michael adduct observed at 8.944 min. […]

T1 sequence (P05067 672-713): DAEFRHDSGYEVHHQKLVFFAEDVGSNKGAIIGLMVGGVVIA

On to `C=C1CCC2C3(C)CC(C=C(C)C)OC3CCC2(C)C1Cc1c(OC)oc(C)c(C)c1=O` (centres unmarked) [Compound 23], for which the GI50 – broadly, the concentration at which growth is held to half of that of the control – is 11.8 µM in assay [1]; 10.3 µM in assay [2]; 0.604 µM in assay [3]; 4.22 µM in assay [4]; 15.4 µM in assay [5].

In the case of `C=C1CCC2C(C)(CCC=C(C)C)C(O)CCC2(C)C1Cc1c(OC)oc(CO)c(C(=O)OC)c1=O` (centres unmarked) [Compound 13], in assay [6], the “formation of typical amyloid fibrils of Aβ42” value is “strongly prevented”.

For the compound `C=C1CC[C@@H]2[C@](C)(CC[C@H]3O[C@H](C=C(C)C)C[C@@]23C)[C@@H]1Cc1c(OC)oc(CO)c(C(=O)OC)c1=O` [Compound 21], the “Number of Unmoving flies (%) Mean” value in assay [7] stood at 11.6667%. Besides, the “formation of typical amyloid fibrils of Aβ42” value in assay [6] is “strongly prevented”. Besides, in assay [8], the “Aβ42 adduct formation” value is on record as “adducts were detected”.

For `C=C1CC[C@H]2[C@]3(C)C[C@H](C=C(C)C)O[C@H]3CC[C@]2(C)[C@@H]1Cc1c(OC)oc(C)c(C)c1=O` [Compound 24], the 50% growth inhibitory concentration (GI50) in assay [1] worked out at 11.6 µM; in assay [2], 9.49 µM; in assay [3] it was 0.929 µM; in assay [4], 3.72 µM; in assay [5], 14.5 µM.

With `C=C1CC[C@H]2[C@]3(C)C[C@@H](C=C(C)C)O[C@H]3CC[C@]2(C)[C@@H]1Cc1c(O)c(C)c(C)oc1=O` [Compound 5, subglutinol A], the “Number of Unmoving flies (%) Mean” value in assay [7] is given as 58.3333%. Also, in assay [7] (1 h after injection), the “paralysing activity against adult Drosophila” value is recorded as “efficiently paralysed adult Drosophila”.

In the case of `C=C1CC[C@@H]2[C@](C)(CC[C@H]3O[C@H](C=C(C)C)C[C@@]23C)[C@@H]1Cc1c(OC)oc(CO)c(C)c1=O` [Compound 20], the “Aβ42 adduct formation” value in assay [8] is given as “no such adduct was found”.

The values are drawn from publication PMC7156458, “Synthetic biology based construction of biological activity-related library of fungal decalin-containing diterpenoid pyrones” (Nature Communications, 2020).
